Our source for the pest or weed control values is patent US4175081A, “5-Substituted thiadiazole ureas” (priority 1977, dated 1979).

The test system of assay [1] is Crabgrass (CG). Description: Pre-emergence herbicide test. In kind it is in vivo, Digitaria sanquinalis. Particulars: Digitaria sanguinalis, pre-emergence, 336 h, two weeks after treatment. Summed up:
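Crabgrass (Digitaria sanquinalis) was surface seeded in 3' plastic pots of potting soil, covered with screened soil, and watered by sub-irrigation in greenhouse trays. Pots were seeded one day before spraying in a hood with a moving belt and fixed nozzle. Plants stayed in the greenhouse on sub-irrigation, and pre-emergence control was rated visually two weeks after treatment.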

In assay [2] the test system is Johnson grass (JG). The assay is described as follows: Pre-emergence herbicide test. The format is in vivo, Sorgum helepense. The conditions noted are these: Sorghum halepense, 336 h, two weeks after treatment. Summed up: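 Pots seeded one day before spraying; compound applied pre-emergence at 8 lbs/acre (or 4 lbs/acre) in 38 gallons/acre spray volume. Sub-irrigated in greenhouse; injury/control rated visually two weeks after treatment.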

Assay [3] relates to Barnyard grass (BG). Description: Pre-emergence herbicide test. The format is in vivo. Particulars: Echinochloa crus-galli, 336 h, two weeks after treatment. An outline of the steps:
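Barnyard grass surface-seeded in potting soil and sprayed pre-emergence one day after seeding, at 8 or 4 lb compound/acre in 38 gal/acre spray volume. Pots kept in greenhouse with sub-irrigation only; injury or control rated visually two weeks after treatment.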

Assay [4] concerns Turnip (TP). The assay is described as follows: Pre-emergence herbicide test. The format is in vivo, Brassica sp. Particulars: Brassica rapa, pre-emergence, 336 h, two weeks after treatment. An outline of the steps:
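Turnip (Brassica sp.) seeds were surface sown in 3' plastic pots of potting soil, covered with a thin layer of screened soil, and sub-irrigated in greenhouse trays. Pots were seeded one day ahead of treatment, sprayed pre-emergence under a hood with a fixed nozzle and moving belt, then kept in the greenhouse.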

For assay [5], the system named is Cotton (CT). Description: Pre-emergence herbicide test. In kind it is in vivo, Gossypium hirsutum var. DPL smooth leaf. The conditions noted are these: Gossypium hirsutum, 336 h, two weeks after treatment. Summed up: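 Crop and weed species seeded one day before treatment, then sprayed pre-emergence at 8 lbs actual compound per acre (also 4 lbs/acre formulations) in 38 gallons per acre. Pots kept in greenhouse with sub-irrigation only; injury or control visually rated two weeks after treatment.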

The subject of assay [6] is Corn (CN). Description: Pre-emergence herbicide test. In kind it is in vivo. Particulars: Zea mays, 336 h, two weeks after treatment. An outline of the steps:
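Four corn seeds per pot, sown at seed-diameter depth one day before spraying, got soil surface treatment at 8 lbs/acre (4 lbs/acre formulations also prepared) in 38 gallons/acre. Pots were greenhouse-held with sub-irrigation only. Injury or control was scored visually two weeks after treatment.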

Assay [7] has as its system Bean (BN). Description: Pre-emergence herbicide test. The format is in vivo, Phaseolus vulgaris var. Black Valentine. The conditions noted are these: Phaseolus vulgaris, 336 h, two weeks after treatment. Summed up: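 Black Valentine bean was seeded in potting soil one day before spraying. Compound was applied pre-emergence at 8 lbs/acre (also 4 lbs/acre) in 38 gallons per acre. Plants were sub-irrigated and injury or control was rated visually after two weeks.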

In assay [8] the test system is Crabgrass (CG). Description: Post-emergence herbicide test. The format is in vivo, Digitaria sanquinalis. Particulars: Digitaria sanguinalis, post-emergence, 336 h, two weeks after treatment; for pest or weed control at 4483.4 g/ha: 4 lb/acre. Summed up: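 Crabgrass (Digitaria sanquinalis) was surface seeded individually in 3' plastic pots of potting soil, covered with screened soil, and watered by sub-irrigation in greenhouse trays. Planting was staggered so seedlings reached the target stage together. Post-emergence sprays were applied in a hood with a removable belt and fixed nozzle, and control was visually rated two weeks after treatment.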

In assay [9] the test system is Yellow foxtail grass (YF). The assay is described as follows: Post-emergence herbicide test. In kind it is in vivo, Setaria glauca. The conditions noted are these: Setaria, 336 h, two weeks after treatment; for pest or weed control at 4483.4 g/ha: 4 lb/acre. The procedure: Yellow foxtail grass (YF)--Setaria glauca
All crop and weed species were planted individually in 3' plastic pots containing potting soil. Four seeds each of corn, cotton, and snapbeans were seeded to a depth equal to the diameter of the seed. All other species were surface seeded and sprinkled with screened soil in an amount sufficient to cover the seed. Immediately after planting, all pots were watered by sub-irrigation in greenhouse trays. Pots for the pre-emergence phase were seeded one day before treatment.
Planting dates for the post-emergence phase were varied so that all seedlings would reach the desired stage of development simultaneously. The proper stage of seedling development for treatment in the post-emergence phase is as follows:
Compounds were tested at rates of application equivalent to 8 lbs. of actual compound per acre in a spray volume of 38 gallons per acre. Spray hood constants required to deliver the above volume are as follows:
Formulations for spray applications were prepared in 50 ml volumes with the following three components:
Formulations for the 4 lbs/acre rate were prepared by adjusting the amount of active ingredient accordingly.
Spray applications were made in a hood containing a removable belt and fixed spray nozzle. For passage through the spray hood, one pot of each specie (pre-emergence phase) was placed on the rear half of the flat. Treatments were removed to the greenhouse after spraying. Watering during the observation period was done only by sub-irrigation.
Two weeks after treatment, pre- and post-emergence injury or control was visually rated, and the results were as shown in the following tables. Pre-emergence data are provided in TABLE III and post-emergence data are provided in TABLE IV, for compounds having the formula illustrated in TABLE I. Correspondingly, pre-emergence and post-emergence data, respectively, are set forth in TABLES V AND VI, for compounds having the formula illustrated in TABLE II.

Assay [10] deals with Johnson grass (JG). The assay is described as follows: Post-emergence herbicide test. Particulars: Sorghum halepense, 336 h, two weeks after treatment; for pest or weed control at 4483.4 g/ha: 4 lb/acre. The format is in vivo, Sorgum helepense. An outline of the steps:
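Greenhouse pot-grown seedlings sprayed post-emergence at 8 lbs compound per acre (some at 4 lbs/acre) in 38 gallons per acre spray volume. Sub-irrigated thereafter. Injury/control rated visually two weeks after treatment.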

Assay [11] deals with Barnyard grass (BG). Description: Post-emergence herbicide test. In kind it is in vivo. Particulars: Echinochloa crus-galli, 336 h, two weeks after treatment; for pest or weed control at 4483.4 g/ha: 4 lb/acre. An outline of the steps: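 Greenhouse pot-grown barnyard grass seedlings sprayed post-emergence at 8 lbs active compound per acre (some at 4 lbs/acre) in 38 gallons per acre, then sub-irrigated. Injury or control rated visually two weeks after treatment.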

The test system of assay [12] is Turnip (TP). Description: Post-emergence herbicide test. The format is in vivo, Brassica sp. The conditions noted are these: Brassica rapa, post-emergence, 336 h, two weeks after treatment; for pest or weed control at 2241.7 g/ha: 2 lb/acre; for pest or weed control at 4483.4 g/ha: 4 lb/acre. Summed up:
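A greenhouse post-emergence herbicide test on turnip. Seeds were sown on the surface of potting soil in 3' plastic pots, lightly covered with screened soil and watered from below. Planting was timed so seedlings had 1 or 2 true leaves above the cotyledons at spraying, done in a hood with a fixed nozzle. Control or injury was scored by eye after two weeks.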

Assay [13] deals with Cotton (CT). The assay is described as follows: Post-emergence herbicide test. In kind it is in vivo, Gossypium hirsutum var. DPL smooth leaf. The conditions noted are these: Gossypium hirsutum, post-emergence, 336 h, two weeks after treatment; for pest or weed control at 4483.4 g/ha: 4 lb/acre. An outline of the steps: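 Cotton (Gossypium hirsutum var. DPL smooth leaf) was grown in 3' plastic pots of potting soil, four seeds per pot, planted at a depth equal to the seed diameter and watered by sub-irrigation. At the stage of expanded cotyledons with the first true leaf 1' long, plants were sprayed post-emergence in a hood with a fixed nozzle over a moving belt. Percent control was rated visually two weeks later.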

Assay [14] deals with Corn (CN). The assay is described as follows: Post-emergence herbicide test. In kind it is in vivo. Particulars: Zea mays, 336 h, two weeks after treatment; for pest or weed control at 4483.4 g/ha: 4 lb/acre. Summed up:
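Greenhouse seedlings grown in potting soil and sprayed post-emergence at 8 lbs compound/acre (formulations also made for 4 lbs/acre) in 38 gallons/acre spray volume. Watering by sub-irrigation only. Injury or control rated visually two weeks after treatment.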

Assay [15] concerns Bean (BN). Description: Post-emergence herbicide test. The conditions noted are these: Phaseolus vulgaris, post-emergence, 336 h, two weeks after treatment; for pest or weed control at 4483.4 g/ha: 4 lb/acre. The format is in vivo, Phaseolus vulgaris var. Black Valentine. An outline of the steps: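 Snapbean (Phaseolus vulgaris var. Black Valentine) was tested post-emergence. Four seeds were sown in 3' plastic pots of potting soil at a depth equal to the seed diameter, then sub-irrigated in greenhouse trays. Planting dates were staggered so plants were sprayed once primary leaves had expanded, with the growing point at the primary leaf nodes.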

The subject of assay [16] is Amaranth pigweed (PW). The assay is described as follows: Post-emergence herbicide test. The conditions noted are these: 336 h, two weeks after treatment. In kind it is in vivo, Amaranthus retroflexus. An outline of the steps: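 Pot-grown pigweed was sprayed post-emergence at the 1–2 true-leaf stage with compound at rates equivalent to 8 lbs per acre (formulations also prepared for 4 lbs/acre) in 38 gallons per acre, using a hood with fixed nozzle. Plants were sub-irrigated in the greenhouse, and injury or control was rated visually two weeks after treatment.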

Assay [17] relates to Amaranth pigweed (PW). The assay is described as follows: Pre-emergence herbicide test. In kind it is in vivo, Amaranthus retroflexus. Particulars: 336 h, 4 lb/acre, two weeks after treatment. An outline of the steps:
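Pigweed was surface-seeded in potted soil one day before spraying at 8 lbs compound per acre, or 4 lbs/acre, in 38 gallons per acre. Pots were kept in the greenhouse with sub-irrigation only; injury or control was rated visually two weeks after treatment.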

As to `CNC(=O)Nc1nnc(-c2cccc(Cl)c2)s1` [Example 72], the pest or weed control at 8966.8 g/ha came to 0% in the assay with Crabgrass (CG) [1] (8 lb/acre); 0% in the assay with Johnson grass (JG) [2] (8 lb/acre); 0% in the assay on Barnyard grass (BG) [3] (8 lb/acre); 0% with Turnip (TP) [4] (8 lb/acre); 80% with Cotton (CT) [5] (8 lb/acre); 30% with Corn (CN) [6] (8 lb/acre). The pest or weed control at 8966.8 g/ha with Bean (BN) [7] (8 lb/acre) came out at 100%; in the assay with Crabgrass (CG) [8] (8 lb/acre), 30%; in [9] (8 lb/acre), 30%; in the assay with Johnson grass (JG) [10] (8 lb/acre), 20%; with Barnyard grass (BG) [11] (8 lb/acre), 40%; in the assay with Turnip (TP) [12] (8 lb/acre), 40%. Also, the pest or weed control at 8966.8 g/ha was determined as 30% with Cotton (CT) [13] (8 lb/acre), 0% in the assay on Corn (CN) [14] (8 lb/acre) and 20% in the assay on Bean (BN) [15] (8 lb/acre).

For `C=C(C)CSc1nnc(NC(=O)NC)s1` [Example 49], the pest or weed control at 4483.4 g/ha is 80% in the assay with Crabgrass (CG) [8]; 40% in [9]; 40% with Johnson grass (JG) [10]; 40% in the assay with Barnyard grass (BG) [11]; 90% in the assay with Turnip (TP) [12]; 100% in the assay with Cotton (CT) [13]. The pest or weed control at 4483.4 g/ha in the assay with Corn (CN) [14] turned out to be 40%; in the assay on Bean (BN) [15], 50%. The pest or weed control at 2241.7 g/ha with Amaranth pigweed (PW) [16] (2 lb/acre) turned out to be 100%; with Turnip (TP) [12] it was 70%.

Take `CCC(C)Sc1nnc(NC(=O)NC)s1` (stereo not shown) [Example 48]: the pest or weed control at 4483.4 g/ha amounted to 70% in the assay with Crabgrass (CG) [8]; 30% in [9]; 60% in the assay on Johnson grass (JG) [10]; 40% with Barnyard grass (BG) [11]; 70% in the assay on Turnip (TP) [12]; 100% in the assay with Cotton (CT) [13]. Also, the figures for the pest or weed control at 4483.4 g/ha with Corn (CN) [14] and in the assay on Bean (BN) [15] were 30% and 50%, respectively.

For the molecule `CNC(=O)Nc1nnc(C(F)F)s1` [Example 67], the pest or weed control came out at 80% with Crabgrass (CG) [1] (2 lb/acre), 80% with Crabgrass (CG) [8] (2 lb/acre), 40% in the assay with Johnson grass (JG) [10] (2 lb/acre) and 40% with Corn (CN) [14] (2 lb/acre). Moreover, the pest or weed control at 4483.4 g/ha with Crabgrass (CG) [1] (4 lb/acre) came out at 90%; in the assay on Johnson grass (JG) [2] (4 lb/acre), 50%; in the assay on Amaranth pigweed (PW) [17] it was 100%; with Turnip (TP) [4] (4 lb/acre), 100%; in the assay with Cotton (CT) [5] (4 lb/acre), 80%; in the assay with Corn (CN) [6] (4 lb/acre), 70%. In addition, the pest or weed control at 4483.4 g/ha came to 90% with Bean (BN) [7] (4 lb/acre); 80% in the assay on Crabgrass (CG) [8]; 90% in the assay with Johnson grass (JG) [10]; 100% in the assay on Amaranth pigweed (PW) [16] (4 lb/acre); 100% in the assay on Turnip (TP) [12]; 100% in the assay with Cotton (CT) [13]. Also, the pest or weed control at 4483.4 g/ha in the assay on Corn (CN) [14] is 70%; in the assay with Bean (BN) [15], 100%. Further, the pest or weed control at 2241.7 g/ha with Johnson grass (JG) [2] (2 lb/acre) is 40%; in the assay with Barnyard grass (BG) [3] (2 lb/acre), 50%; with Turnip (TP) [4] (2 lb/acre), 60%; in the assay with Cotton (CT) [5] (2 lb/acre) it was 0%; in the assay on Corn (CN) [6] (2 lb/acre), 0%; with Bean (BN) [7] (2 lb/acre), 0%. Also, the pest or weed control at 2241.7 g/ha in the assay on Barnyard grass (BG) [11] (2 lb/acre) came to 80%; in the assay with Turnip (TP) [12], 100%; in the assay on Cotton (CT) [13] (2 lb/acre), 100%; with Bean (BN) [15] (2 lb/acre), 90%.

What is called pest or weed control is how far the test organism was held down. Read a low pest or weed control as a weak effect.
